Assay results: patent publication US9890126B2 (priority 2012, dated 2018)
Like-named read-outs stand apart in the source and are kept apart here. Marks after values point to notes of the source that are not given here.

Columns and labels:
IspF = IspF (Burkholderia pseudomallei, UniProt Q3JRA0); assay: biochemical; assay type: binding
[1] = relative to DMSO control, 0.00 = growth with inhibitor equal to or greater than DMSO control

Sequence of IspF (Q3JRA0 whole entry, looked up): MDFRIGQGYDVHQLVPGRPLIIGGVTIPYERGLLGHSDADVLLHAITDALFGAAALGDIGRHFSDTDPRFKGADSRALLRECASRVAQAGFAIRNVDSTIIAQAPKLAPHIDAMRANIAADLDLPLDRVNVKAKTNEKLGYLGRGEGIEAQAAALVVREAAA

| SMILES | % Growth Inhibition Endpoint (24 h) (Burkholderia; [1]) | further results |
| --- | --- | --- |
| Oc1ccc(-c2cncn2CCc2c(Cl)cccc2Cl)cc1 [HGN0098] | 0.00^b % | – |
| NC(=O)c1c[nH]nc1NC(=O)c1c[nH]c2ncccc12 [HGN-0002] | – | Kd (IspF; pH 7.4): not soluble |
| NC(=O)c1c[nH]nc1NC(=O)c1cncs1 [HGN-0004] | 0.00^b % | – |
| Nc1ccn([C@@H]2O[C@H](CNC(=O)c3ccncc3)[C@@H](O)[C@H]2O)c(=O)n1 [HGN-0005] | – | Kd (IspF): 176 µM; % Growth Inhibition Growth Curve (Burkholderia; [1]): 0.00^b % |
| Nc1ccn([C@@H]2O[C@H](CNC(=O)c3cn4ccsc4n3)[C@@H](O)[C@H]2O)c(=O)n1 [HGN-0006] | 0.00^b % | – |
| Nc1ccn([C@@H]2O[C@H](CNC(=O)c3ccnc4nc[nH]c34)[C@@H](O)[C@H]2O)c(=O)n1 [HGN-0007] | 0.00^b % | – |
| Nc1ccn([C@@H]2O[C@H](CNC(=O)c3cscn3)[C@@H](O)[C@H]2O)c(=O)n1 [HGN-0008] | 0.00^b % | – |
| NC(=O)c1c[nH]nc1NC(=O)Cc1cn2ccsc2n1 [HGN-0009] | 0.00^b % | – |
| NC(=O)c1c[nH]nc1NC(=O)c1cnc2sccn12 [HGN-0010] | 7.22 ± 4.24% | – |
| O=C([O-])c1cnc(Nc2ccc(-c3ccncc3)cc2)nc1[O-].[Na+].[Na+] [HGN-0013] | – | Kd (IspF; pH 7.4): non-specific; % Growth Inhibition Growth Curve (Burkholderia; [1]): 6.26 ± 1.00% |
| O=C([O-])c1cnc(Nc2ccc(Br)cc2)nc1[O-].[Na+].[Na+] [HGN-0014] | 15.52 ± 0.41% | – |
| CCOC(=O)c1cnc(Nc2ccc(-c3ccncc3)cc2)[nH]c1=O [HGN-0015] | – | % Growth Inhibition Growth Curve (Burkholderia; [1]): 14.43 ± 2.38% |
| CCOC(=O)c1cnc(NCC2CCCO2)[nH]c1=O (stereo not shown) [HGN-0017, ethyl 6-oxo-2-(((tetrahydrofuran-2-yl)methyl)amino)-1,6-dihydropyrimidine-5-carboxylate] | – | % Growth Inhibition Growth Curve (Burkholderia; [1]): 0.00^b % |
| CC(C)n1cncc1-c1ccc(O)cc1 [HGN-0018] | – | Kd (IspF; pH 7.4): no binding |
| Oc1ccc(-c2cncn2Cc2ccco2)cc1 [HGN-0019] | – | Kd (IspF): 380 µM |
| Oc1ccc(-c2cncn2CCc2ccccc2)cc1 [HGN-0022] | 0.00^b % | – |
| Cn1cncc1C(O)c1ccccc1 (stereo not shown) [HGN-0031] | – | % Growth Inhibition Growth Curve (Burkholderia; [1]): 0.00^b % |
| CCOC(=O)c1cnc(Nc2ccc(-c3ccccc3)cc2)[nH]c1=O [HGN-0033, ethyl 2-((1,1′-biphenyl)-4-ylamino)-6-oxo-1,6-dihydropyrimidine-5-carboxylate] | 5.07 ± 2.01% | – |
| CCOC(=O)c1cnc(Nc2ccc(N3CCCCC3)cc2)[nH]c1=O [HGN-0034, ethyl 6-oxo-2-((4-(piperidin-1-yl)phenyl)amino)-1,6-dihydropyrimidine-5-carboxylate] | 86.20 ± 0.16% | – |
| O=C([O-])c1cnc(Nc2ccc(N3CCCCC3)cc2)nc1[O-].[Na+].[Na+] [HGN-0036] | 22.38 ± 21.24% | – |
| O=C([O-])c1cnc(Nc2cccc(-c3ccccc3)c2)nc1[O-].[Na+].[Na+] [HGN-0044, Sodium 2-([1,1′-biphenyl]-3-ylamino)-4-oxidopyrimidine-5-carboxylate] | 1.48 ± 7.90% | – |
| CCOC(=O)c1cnc(NCc2ccco2)[nH]c1=O [HGN-0047, Ethyl 2-((furan-2-ylmethyl)amino)-6-oxo-1,6-diydropyrimidine-5-carboxylate] | 0.00^b % | – |
| Oc1ccc(CCn2cncc2-c2ccc(O)cc2)cc1 [HGN-0048] | – | Kd (IspF): 486 µM |
| O=C([O-])c1cnc(NCC2CCCO2)nc1[O-].[Na+].[Na+] (stereo not shown) [HGN-0050] | 32.99 ± 9.22% | – |

| SMILES | % Growth Inhibition Endpoint (24 h) (Burkholderia; [1]) | further results |
| --- | --- | --- |
| Oc1ccc(-c2cncn2CCc2ccccc2)cc1 [HGN-0052] | – | Kd (IspF; pH 7.4): no binding |
| Oc1ccc(-n2ccnc2)cc1 [HGN-0056] | – | Kd (IspF; pH 7.4): no binding |
| OC(Cn1cnc(-c2ccccc2)c1-c1ccccc1)c1ccccc1 (stereo not shown) [HGN-0060] | – | Kd (IspF; pH 7.4): not soluble |
| Cn1ccnc1C(O)Cc1ccccc1 (stereo not shown) [HGN-0061] | – | Kd (IspF; pH 7.4): no binding |
| CC(c1ccccc1)C(O)c1nccn1-c1ccccc1 (stereo not shown) [HGN-0062] | – | Kd (IspF; pH 7.4): no binding |
| Oc1ccc(-c2cncn2Cc2cccc(Cl)c2)cc1 [HGN-0090] | – | % Growth Inhibition Endpoint (24 h) (Burkholderia; cells printing symbol L): L^c |
| Oc1ccc(-c2cncn2Cc2ccccc2Cl)cc1 [HGN-0091] | – | % Growth Inhibition Endpoint (24 h) (Burkholderia; cells printing symbol L): L^c |
| Oc1ccc(-c2cncn2Cc2ccc(Cl)c(Cl)c2)cc1 [HGN-0092] | 25.41 ± 2.79% | – |
| Oc1ccc(-c2cncn2Cc2ccc(F)cc2)cc1 [HGN-0093] | 58.12 ± 2.17% | – |
| Oc1ccc(-c2cncn2Cc2ccc(Cl)cc2)cc1 [HGN-0094] | – | % Growth Inhibition Endpoint (24 h) (Burkholderia; cells printing symbol L): L^c |
| Oc1ccc(-c2cncn2CCc2ccc(F)cc2)cc1 [HGN-0095] | 88.27 ± 0.48% | inhibition against Burkholderia (Burkholderia; concentration not given): 88.3% |
| Oc1ccc(-c2cncn2CCc2ccccc2Cl)cc1 [HGN-0096] | – | % Growth Inhibition Endpoint (24 h) (Burkholderia; cells printing symbol L): L^c |
| Oc1ccc(-c2cncn2CCc2cccc(F)c2)cc1 [HGN-0097] | 4.27 ± 14.54% | – |
| Oc1ccc(-c2cncn2CCc2ccc(Cl)cc2Cl)cc1 [HGN-0099] | 0.00^b % | – |
| Oc1ccc(-c2cncn2CCc2ccc(Cl)c(Cl)c2)cc1 [HGN-0100] | – | % Growth Inhibition Endpoint (24 h) (Burkholderia; cells printing symbol L): L^c |
| Nc1ccn([C@@H]2O[C@H](CNC(=O)Cc3cn4ccsc4n3)[C@@H](O)[C@H]2O)c(=O)n1 [HGN-0102] | 0.00^b % | – |
| Oc1ccc(-c2cncn2Cc2ccccc2F)cc1 [HGN-0106] | 33.79 ± 16.09% | – |
| Oc1ccc(-c2cncn2CCc2ccccc2F)cc1 [HGN-0107] | 2.75 ± 2.62% | – |
| Oc1ccc(-c2cncn2CCc2cccc(Cl)c2)cc1 [HGN-0108] | – | % Growth Inhibition Endpoint (24 h) (Burkholderia; cells printing symbol L): L^c |
| Oc1ccc(-c2cncn2Cc2cccc(F)c2)cc1 [HGN-0109] | 24.77 ± 10.79% | – |
| CCOC(=O)c1cnc(NCCc2ccc(F)cc2)[nH]c1=O [HGN-0111] | 31.31 ± 39.32% | – |
| O=C([O-])c1cnc(NCCc2ccc(F)cc2)nc1[O-].[Na+].[Na+] [HGN-0112] | 19.82 ± 16.53% | – |
| CCOC(=O)c1cnc(NCc2ccc(F)cc2)[nH]c1=O [HGN-0113] | 0.00^b % | – |
| O=C([O-])c1cnc(NCc2ccc(F)cc2)nc1[O-].[Na+].[Na+] [HGN-0114] | 5.94 ± 5.46% | – |

| SMILES | % Growth Inhibition Endpoint (24 h) (Burkholderia; [1]) | further results |
| --- | --- | --- |
| CCOC(=O)c1cnc(NCCc2cccc(F)c2)[nH]c1=O [HGN-0115] | 0.00^b % | – |
| O=C([O-])c1cnc(NCCc2cccc(F)c2)nc1[O-].[Na+].[Na+] [HGN-0116] | 20.46 ± 3.47% | – |
| CCOC(=O)c1cnc(NCCc2ccc(Cl)cc2Cl)[nH]c1=O [HGN-0117] | 0.00^b % | – |
| CCOC(=O)c1cnc(NCCc2ccccc2Cl)[nH]c1=O [HGN-0119] | 0.00^b % | – |
| O=C([O-])c1cnc(NCCc2ccccc2Cl)nc1[O-].[Na+].[Na+] [HGN-0120] | 80.30 ± 0.40% | – |
| CCOC(=O)c1cnc(NCc2ccccc2Cl)[nH]c1=O [HGN-0121] | 0.00^b % | – |
| O=C([O-])c1cnc(NCc2ccccc2Cl)nc1[O-].[Na+].[Na+] [HGN-0122] | 23.02 ± 8.79% | – |
| CCOC(=O)c1cnc(NCc2cccc(Cl)c2)[nH]c1=O [HGN-0123] | 0.00^b % | – |
| O=C([O-])c1cnc(NCc2cccc(Cl)c2)nc1[O-].[Na+].[Na+] [HGN-0124] | 30.67 ± 2.67% | – |
| CCOC(=O)c1cnc(NCc2ccc(Cl)cc2)[nH]c1=O [HGN-0125] | 23.89 ± 36.14% | – |
| O=C([O-])c1cnc(NCc2ccc(Cl)cc2)nc1[O-].[Na+].[Na+] [HGN-0126] | 34.34 ± 3.24% | – |
| CCOC(=O)c1cnc(NCc2cc(Cl)ccc2Cl)[nH]c1=O [HGN-0127] | 3.47 ± 2.20% | – |
| O=C([O-])c1cnc(NCc2cc(Cl)ccc2Cl)nc1[O-].[Na+].[Na+] [HGN-0128] | 37.46 ± 0.21% | – |
| CCOC(=O)c1cnc(NCc2ccc(Cl)c(Cl)c2)[nH]c1=O [HGN-0129] | 64.42 ± 2.77% | – |
| O=C([O-])c1cnc(NCc2ccc(Cl)c(Cl)c2)nc1[O-].[Na+].[Na+] [HGN-0130] | 45.59 ± 2.35% | – |
| CCOC(=O)c1cnc(NCCc2ccc(Cl)c(Cl)c2)[nH]c1=O [HGN-0131] | 0.00^b % | – |
| O=C([O-])c1cnc(NCCc2ccc(Cl)c(Cl)c2)nc1[O-].[Na+].[Na+] [HGN-0132] | 72.24 ± 11.83% | – |
| CCOC(=O)c1cnc(NCc2ccccc2F)[nH]c1=O [HGN-0133] | 0.00^b % | – |
| O=C([O-])c1cnc(NCc2ccccc2F)nc1[O-].[Na+].[Na+] [HGN-0134] | 26.05 ± 6.37% | – |
| CCOC(=O)c1cnc(NCCc2c(Cl)cccc2Cl)[nH]c1=O [HGN-0135] | 0.00^b % | – |
| O=C([O-])c1cnc(NCCc2c(Cl)cccc2Cl)nc1[O-].[Na+].[Na+] [HGN-0136] | 16.71 ± 5.04% | – |
| COc1cc(-c2cncn2CCc2c[nH]c3ccccc23)ccc1O [HGN-0137] | 0.00^b % | – |
